The source of these data is PMC12291851, “Hydrogen Sulfide (H2S)-Donating Formyl Peptide Receptor 2 (FPR2) Agonists: Design, Synthesis, and Biological Evaluation in Primary Mouse Microglia Culture” (Antioxidants, 2025).

The nature of data set [1]: Cell-free MTT-based H2S release assay. The format is physicochemical. Conditions: 24 h incubation in MEM with 10% DMSO. As to the method:
Solutions at different concentrations of each compound in 100 µL of serum-free MEM/10% DMSO with 0.5 mg/mL 3-(4,5-dimethylthiazol-2yl)-2,5-diphenyltetrazolium bromide (MTT) were incubated for 5 h or 24 h in a humidified incubator at 37 °C in 5% CO2 atmosphere. The experimental design comprised blank wells containing only medium and MTT, and a H2S calibration curve obtained by incubating nine solutions at decreasing concentrations (100 µM to 0.01 µM) of NaHS in medium and MTT. At the end of incubation time, the supernatant was removed, the […] crystals were dissolved in 100 µL DMSO/EtOH (1:1 v/v), and absorbance values were read using a Victor 3 plate reader (PerkinElmer, Shelton, CT, USA) at 570 nm. H2S values are expressed as mean ± S.E.M. of the results of three independent experiments conducted in triplicate, and were plotted using GraphPad Prism 7.
To decipher such results and considering the redox properties of H2S, we questioned if H2S released by our compounds in the culture media could interfere with the conversion of MTT (3-[4,5-dimethylthiazol-2-yl]-2,5-diphenyl tetrazolium bromide) to formazan, which is usually related to cell viability. Thus, we ran cell-free experiments in which MTT was used as the substrate to capture the reductive action of H2S. We found, in agreement with Gerő et al., that some of our thioureas and thioamides reduced MTT to formazan after 24 h incubation in MEM with 10% DMSO.

The test system of data set [2] is HepG2 cells. Kind of data set: Intracellular H2S release with WSP-1 probe. The format is cell-based, human. As to conditions: for intracellular H2S release, WSP-1 fluorescence signal vs vehicle: HepG2, tested concentrations 100-300 μM, 60 min. As to the method: All cell culture reagents were purchased from S.I.A.L. S.r.l. (Rome, Italy). WSP-1 (Washington State Probe-1, 3′-methoxy-3-oxo-3H-spiro[isobenzofuran-1,9′-xanthen]-6′-yl 2-(pyridine-2-yl-disulfanyl benzoate), was obtained from Cayman Chemical (Cayman, Ann Arbor, MI, USA). HepG2, human hepatocellular carcinoma cells, was obtained from American Type Culture Collection (ATCC, Bethesda, MD, USA). Human hepatocellular carcinoma cells (HepG2) were cultured in Minimum Essential Eagle’s Medium. This medium was supplemented with 10% (v/v) Fetal Bovine Serum, 1% (v/v) Glutamine and 1% (v/v) Penicillin-Streptomycin, 1% non-essential amino acids. Cells were cultivated at 37 °C with 5% CO2 at saturated humidity.
These experiments were carried out as already described. HepG2 cells were cultured up to about 90% confluence, and 24 h before the experiment cells were seeded into a 96-well flat bottom black plate (50,000 cells per well). After 24 h, the medium was replaced and cells were incubated at 37 °C for 30 min with a 10 mM solution of the fluorescent WSP-1 probe, which is highly sensitive for H2S detection. After incubation, the supernatant was removed and replaced with different concentrations (100, 200, and 300 µM) of the tested compounds dissolved in HBSS buffer. […] ADT 100 µM was used as a slow H2S-donor reference compound. Data were analyzed by one-way ANOVA for repeated measures, followed by post hoc Bonferroni’s multiple comparison test. Results are expressed as mean ± SEM of 3 independent experiments in triplicate. Statistical significance was accepted at a level of p < 0.05.
Next, we assessed the intracellular H2S release of thioureas and thioamides in HepG2 cells. The compounds were tested at different concentrations (100–300 μM) to evaluate if the release was dose-dependent. We also assayed ADT-OH and TIA as reference H2S-donors, and 3a as a negative control. The results were normalized to the fluorescence signal obtained with 100 μM ADT-OH.

With `N#Cc1ccc(C[C@H](NC(=O)Nc2ccc(F)cc2)C(=S)N2CCc3ccccc32)cc1` [7b, (S)-1-[3-(4-Cyanophenyl)-1-(indolin-1-yl)-1-thioxopropan-2-yl]-3-(4-fluorophenyl)urea], the “absorbance signal (MTT reduction to formazan) indicative of H2S release” value in data set [1] is reported as “robust absorbance signal”. Moreover, the “intracellular level of H2S vs reference H2S donor ADT” value in data set [2] (HepG2, at 200 and 300 μM, p < 0.001 vs. ADT) is “more than the reference H2S donor ADT”. Moreover, the “intracellular H2S release, WSP-1 fluorescence signal vs vehicle” value in data set [2] is on record as “significant fluorescence signal increase at all tested concentrations”. Also, the “levels of H2S release in HepG2 cells” value in data set [2] (summary of WSP-1 results) is “very high levels of H2S release”.
`N#Cc1ccc(C[C@H](NC(=O)Nc2ccc(Br)cc2)C(=S)N2CCc3ccccc32)cc1` [8b, (S)-1-(4-Bromophenyl)-3-[3-(4-cyanophenyl)-1-(indolin-1-yl)-1-thioxopropan-2-yl]urea]: the “absorbance signal (MTT reduction to formazan) indicative of H2S release” value in data set [1] was “below the assay’s detection limit”. Moreover, the “intracellular H2S release, WSP-1 fluorescence signal vs vehicle” value in data set [2] is “not statistically significant”.
